Measured values from patent US7635788B2, “Alpha-amino acid derivatives with antiinflammatory activity” (Italfarmaco SpA, priority 2004, dated 2009).

Assays:
[1] = system: TNFα production by peripheral blood mononucleocytes stimulated with LPS; experiment: Inhibition of TNFα production by human monocytes stimulated with LPS; type: cell-based; conditions: LPS 10 ng/ml, 24 hours, ELISA
Protocol: The compounds were dissolved in DMSO at a final concentration of 10 mM.
The solutions for the assay were prepared by diluting the mother solutions in RPMI 1640 with the addition of 1% FCS and 0.01% DMSO and were filtered with 0.2 μm filters.
The peripheral blood mononucleocytes were obtained from blood from healthy donors by separation in a Ficoll-Hypaque gradient [C. G. Figdor, et al. Blood, 1982, 60: 46-53]. The cells were sown in 96-well plates, at a concentration of approx. 500,000 cells per well, suspended in RPMI 1640 containing 1% FCS and were incubated at 37° C. in the presence of different concentrations (from 10^−6 to 10^−11M) of the compounds to be investigated. After 1 hour, LPS was added (at a final concentration of 10 ng/ml; obtained from E. coli 055:B5) and the plates were incubated at 37° C. for a further 24 hours. At the end of this period, the supernatants were collected and used for the determination of TNFα content by means of ELISA (DuoSet ELISA kit; R&D Systems, Minneapolis, Minn., USA).
The concentration of TNFα was calculated using a calibration curve and the IC50 values (the concentration which brings about 50% inhibition of the production of the cytokine) were calculated from the curve obtained by plotting the percentage inhibition values for each individual concentration of the compound under investigation.

[2] = system: human hepatoma cell line Hep-G2; experiment: Cytotoxicity towards tumour cells in vitro (Cell Titer 96 formazane colorimetric assay); type: cell-based; conditions: 48 h, percentage inhibition of the formation of formazane relative to the control
Protocol: The cytotoxicity of some compounds described in the preceding Examples was evaluated in vitro on human hepatoma cell line Hep-G2, by means of a commercial colorimetric method (Cell Titer 96® Aque ous One Solution Cell Proliferation Assay—Promega); the method determines the number of viable cells on the basis of their capacity to metabolise a tetrazolium salt producing formazane. The quantity of formazane produced is proportional to the number of viable cells.
The Hep-G2 cells are distributed 96 well microplates at a density of 4×10^4 cells/well (100 μl), in M199 medium containing 10% foetal bovine serum and supplements (complete medium).
After 24 hours' incubation (37° C., 5% CO2, 90% humidity), the cells are washed once and the medium is replenished with 200 μl of complete medium containing the substances to be tested at the final concentration of 10^−5, 10^−6 and 10^−7M. The test is performed in triplicate.
The plates are incubated for a further 48 h, at the end of which 100 μl of medium are removed and 20 μl/well of staining solution are added in accordance with the supplier's instructions. Optical density (λ=490 nm) is read after 1 hour's incubation at 37° C. using a plate reader (Victor2—Wallac Perkin Elmer).

Structure (SMILES) | IC50 ([1]; Monocyte) | Cytotoxicity at 10^−5 M [2] | Cytotoxicity at 10^−6 M [2] | IC50 [1]
O=C(NO)c1ccc(NC(=O)[C@H](Cc2ccc(-c3ccccc3)cc2)NC(=O)c2ccccc2)cc1 [Example 2f, 4-(2(S)-Benzoylamino-3-biphenyl-4-yl-propionylamino)-N-hydroxy-benzamide] | 72.1 nM | 81.6% | 22.7% | –
CC(=O)N[C@@H](Cc1ccc(C(F)(F)F)cc1)C(=O)Nc1ccc(C(=O)NO)cc1 [Example 2j, 4-[2(S)-Acetylamino-3-(4-trifluoromethyl-phenyl)-propionylamino]-N-hydroxy-benzamide] | 4.6 nM | 39.3% | 15.8% | –
O=C(NO)c1ccc(NC(=O)[C@H](Cc2ccc(-c3ccccc3)cc2)NC(=O)c2ccc3ccccc3c2)cc1 [Example 2y, N-[1(S)-(4-hydroxycarbamoyl-phenylcarbamoyl)-2-(biphenyl-4-yl)-ethyl]-amide of naphthalene-2-carboxylic acid] | – | 73.7% | 20.4% | 21.3 nM
CC(=O)N[C@@H](Cc1ccc2ccccc2c1)C(=O)Nc1ccc(C(=O)NO)cc1 [Example 2d, 4-(2(S)-Acetylamino-3-naphthalen-2-yl-propionylamino)-N-hydroxy-benzamide] | 4.4 nM | 56.2% | 9.6% | –
CC(=O)N[C@H](Cc1ccc2ccccc2c1)C(=O)Nc1ccc(C(=O)NO)cc1 [Example 2b, 4-(2(R)-Acetylamino-3-naphthalen-2-yl-propionylamino)-N-hydroxy-benzamide] | 51.8 nM | 48.3% | 10.6% | –
Nc1ccc(C(=O)N[C@H](Cc2ccc3ccccc3c2)C(=O)Nc2ccc(C(=O)NO)cc2)cc1 [Example 2l, 4-Amino-N-[1(R)-(4-hydroxycarbamoyl-phenylcarbamoyl)-2-naphthalen-2-yl-ethyl]-benzamide] | 29.6 nM | 61.9% | 14.4% | –
O=C(NO)c1ccc(NC(=O)[C@H](Cc2ccccc2)NC(=O)c2ccc3ccccc3c2)cc1 [Example 2x, N-[1(S)-(4-hydroxycarbamoyl-phenylcarbamoyl)-2-phenyl-ethyl]-amide of naphthalene-2-carboxylic acid] | – | 77.3% | 15.3% | 8.6 nM
Nc1ccc(C(=O)N[C@@H](Cc2ccc3ccccc3c2)C(=O)Nc2ccc(C(=O)NO)cc2)cc1 [Example 2m, 4-Amino-N-[1(S)-(4-hydroxycarbamoyl-phenylcarbamoyl)-2-naphthalen-2-yl-ethyl]-benzamide] | 26.7 nM | 72.4% | 24.5% | –
CC(=O)N[C@@H](Cc1ccccc1)C(=O)Nc1ccc(C(=O)NO)cc1 [Example 2e, 4-(2(S)-Acetylamino-3-phenyl-propionylamino)-N-hydroxy-benzamide] | 12.5 nM | 17.1% | 13.3% | –
O=C(NO)c1ccc(NC(=O)[C@@H](Cc2ccc3ccccc3c2)NC(=O)c2ccccc2)cc1 [Example 1a, 4-(2(R)-Benzoylamino-3-naphthalen-2-yl-propionylamino)-N-hydroxy-benzamide] | 3 nM | 75.2% | 22.6% | –
CC(=O)N[C@@H](Cc1ccc(O)cc1)C(=O)Nc1ccc(C(=O)NO)cc1 [Example 2i, 4-[2(S)-Acetylamino-3-(4-hydroxy-phenyl)-propionylamino]-N-hydroxy-benzamide] | 13.3 nM | 12.2% | 15.7% | –
O=C(NO)c1ccc(NC(=O)[C@H](Cc2ccc3ccccc3c2)NC(=O)c2ccc3c(c2)OCO3)cc1 [Example 2t, N-[1(S)-(4-hydroxycarbamoyl-phenylcarbamoyl)-2-naphthalen-2-yl-ethyl]-amide of benzo[1,3]dioxole-5-carboxylic acid] | – | 79.3% | 48.5% | 4.8 nM
O=C(NO)c1ccc(NC(=O)[C@H](Cc2ccccc2)NC(=O)c2ccccc2)cc1 [Example 2h, 4-(2(S)-Benzoylamino-3-phenyl-propionylamino)-N-hydroxy-benzamide] | 11.3 nM | 77.4% | 31.2% | –
O=C(NO)c1ccc(NC(=O)[C@H](Cc2ccc3ccccc3c2)NC(=O)c2cncc(Br)c2)cc1 [Example 2q, 5-Bromo-N-[1(S)-(4-hydroxycarbamoyl-phenylcarbamoyl)-2-naphthalen-2-yl-ethyl]-nicotinamide] | 22.9 nM | 53.9% | 11.7% | –
O=C(NO)c1ccc(NC(=O)[C@H](Cc2ccc(O)cc2)NC(=O)c2ccccc2)cc1 [Example 2k, 4-[2(S)-Benzoylamino-3-(4-hydroxy-phenyl)-propionylamino]-N-hydroxy-benzamide] | 148 nM | 54.4% | 27.7% | –
O=C(NO)c1ccc(NC(=O)[C@H](Cc2ccc3ccccc3c2)NC(=O)c2ccccc2)cc1 [Example 2g, 4-(2(S)-Benzoylamino-3-naphthalen-2-yl-propionylamino)-N-hydroxy-benzamide] | 6.1 nM | 76.5% | 43.2% | –
O=C(NO)c1ccc(NC(=O)[C@H](Cc2cccc(F)c2)NC(=O)c2ccc3c(c2)OCO3)cc1 [Example 2u, N-[1(S)-(4-hydroxycarbamoyl-phenylcarbamoyl)-2-(3-fluoro-phenyl)-ethyl]-amide of benzo[1,3]dioxole-5-carboxylic acid] | – | 62.9% | 12.9% | 6.8 nM
O=C(NO)c1ccc(NC(=O)[C@H](Cc2ccc(O)cc2)NC(=O)c2ccc3c(c2)OCO3)cc1 [Example 2s, N-[1(S)-(4-hydroxycarbamoyl-phenylcarbamoyl)-2-(4-hydroxy-phenyl)-ethyl]-amide of benzo[1,3]dioxole-5-carboxylic acid] | – | – | – | 1000 nM
O=C(NO)c1ccc(NC(=O)[C@@H](Cc2ccc3ccccc3c2)NC(=O)c2ccc3c(c2)OCO3)cc1 [Example 2r, N-[1(R)-(4-hydroxycarbamoyl-phenylcarbamoyl)-2-naphthalen-2-yl-ethyl]-amide of benzo[1,3]dioxole-5-carboxylic acid] | – | 72.5% | 16.6% | 1.7 nM
O=C(NO)c1ccc(NC(=O)[C@@H](Cc2ccc3ccccc3c2)NC(=O)c2ccc3ccccc3c2)cc1 [Example 2v, N-[1(R)-(4-hydroxycarbamoyl-phenylcarbamoyl)-2-naphthalen-2-yl-ethyl]-amide of naphthalene-2-carboxylic acid] | – | 69.4% | 11.8% | 16.8 nM
O=C(NO)c1ccc(NC(=O)[C@H](Cc2ccc(C(F)(F)F)cc2)NC(=O)c2cncc(Br)c2)cc1 [Example 2o, 5-Bromo-N-[1(S)-(4-hydroxycarbamoyl-phenylcarbamoyl)-2-(4-trifluoromethyl-phenyl)-ethyl]-nicotinamide] | 200 nM | 72.4% | 34.8% | –
